Read-outs that look alike come from different tables or passages of the source.
How the values were obtained:
Assay type in all cases: cell-based
[1] = system: Campylobacter jejuni subsp. jejuni ATCC 33560
[2] = system: Campylobacter jejuni PPMQ3b; details: P<0.05
[3] = system: Campylobacter jejuni PPMQ2b; details: P<0.05
[4] = system: Campylobacter coli ATCC 33559; details: P<0.05
[5] = approximately 20, 30, 40, or 50 mM acid, P<0.05
[6] = approximately 30, 40, or 50 mM acid
[7] = approximately 20, 30, 40, and 50 mM acid
[8] = any of the concentrations tested

Row | SMILES | absorbance compared with cultures in non-supplemented media [1, 5] | absorbance compared with cultures grown in non-supplemented media ([2]; approximately 20 mM acid) | absorbance compared with cultures in non-supplemented media [4, 6] | acid concentration required to produce cultures with higher absorbance than in non-supplemented media [3] | absorbance compared with cultures in non-supplemented media [4, 7] | absorbance compared with cultures grown in non-supplemented media [3, 8] | further results
1 | CC(O)C(=O)O (racemic) [Lactic, DL-lactic acid] | significantly higher | significantly greater | significantly greater | – | – | – | absorbance compared with cultures grown in non-supplemented media ([3]; approximately 20, 30, 40, or 50 mM acid): significantly greater
2 | O=C(O)CC(O)C(=O)O (racemic) [Malic, DL-malic acid] | significantly higher | – | – | approximately 40 mM | significantly higher | – | acid concentration required to produce cultures with significantly higher absorbances than in non-supplemented media [2]: approximately 20 mM
3 | O=C(O)CC(O)(CC(=O)O)C(=O)O [Citric, citric acid] | – | small but significantly higher | – | – | – | not significantly different | growth compared with non-supplemented media [1]: significantly more growth; absorbance compared with isolates grown in non-supplemented media ([1]; approximately 50 mM acid, P<0.05): not significantly different; absorbance compared with isolates grown in non-supplemented media ([4]; approximately 50 mM acid): not significantly different; growth compared with non-supplemented media ([4]; approximately 30 or 40 mM acid): significantly more growth
4 | O=C(O)/C=C/C(=O)O [Fumaric, fumaric acid] | significantly higher | significantly higher | – | approximately 30 mM | significantly higher | – | –
5 | O=C(O)CCC(=O)O [Succinic, succinic acid] | – | – | significantly higher | – | – | none of the concentrations of succinic acid produced significantly higher absorbances | absorbance compared with cultures in non-supplemented media ([1]; approximately 30, 40, or 50 mM acid, P<0.05): significantly higher; absorbance compared with cultures grown in non-supplemented media ([2]; approximately 40 and 50 mM acid): significantly higher
